Assay results reported in patent US20240101576A1, “HETEROCYCLIC INHIBITORS OF EGFR AND/OR HER2, FOR USE IN THE TREATMENT OF CANCER” (Scorpion Therapeutics, Inc., priority 2020, published 2024).
pIC50: −log10 of the molar value.

How the values were obtained:
Format in all cases: cell-based
[1] = molecular target: T1, EGFR exon 20 NPG Ins D770_N771 (Ba/F3 cells) (Homo sapiens, UniProt P00533, INS770NPG); experiment: Inhibitor activity on EGFR phosphorylation (pEGFR AlphaLISA, 2 h), Ba/F3 EGFR exon 20 NPG Ins
T1 construct: expressed in transfected cells; host or cells: Ba/F3 (murine pro-B cells), retroviral transduction, puromycin selection, IL3-independent pool
Method in brief: (§1)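 Ba/F3 cells made IL3-independent by retroviral EGFR mutant expression (puromycin-selected, pooled) and CUTO14 cells were seeded at 50K or 12.5K cells/well, respectively. They were treated 2 h with a 3-fold, 10-point compound series, lysed, and phospho-EGFR was read by AlphaLISA to give IC50.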

[2] = molecular target: EGFR (CUTO14 cells) (Homo sapiens, UniProt P00533); experiment: Inhibitor activity on EGFR phosphorylation (pEGFR AlphaLISA, 2 h), CUTO14 cells
Method in brief: as §1

[3] = molecular target: T2, EGFR WT (Ba/F3 cells) (Homo sapiens, UniProt P00533); experiment: Inhibitor activity on EGFR-dependent cell growth (CellTiter-Glo, 72 h), Ba/F3 EGFR WT; settings: read-out: BaF3 WT IC50
T2 construct: expressed in transfected cells; host or cells: Ba/F3 (murine pro-B cells), retroviral transduction, puromycin selection, maintained with EGF
Method in brief: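 This growth assay used Ba/F3 cells that depend on wild-type EGFR and are kept in EGF without IL3. Compounds were made up as 10 mM DMSO stocks and diluted 3-fold over 10 points. 120 nL went onto 600 cells/well. After 72 hours, 40 μL CellTiter-Glo was added and luminescence read on EnVision after 30 min.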

[4] = molecular target: T3, EGFR L858R (Ba/F3 cells) (Homo sapiens, UniProt P00533, L858R); experiment: Inhibitor activity on EGFR-dependent cell growth (CellTiter-Glo, 72 h), Ba/F3 EGFR L858R; settings: read-out: BaF3 L858R IC50
T3 construct: expressed in transfected cells; host or cells: Ba/F3 (murine pro-B cells), retroviral transduction, puromycin selection, IL3-independent pool
Method in brief: (§2)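 Compounds, serially diluted 3-fold over 10 points in DMSO and added at 120 nL per well, act on Ba/F3 EGFR-mutant cells for 72 h. Seeding is 800 (exon 19del, FQEA), 600 (L858R/C797S) or 400 (L858R) cells/well. CTG luminescence is fitted with a four-parameter logistic curve to give IC50.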

[5] = molecular target: T4, EGFR L858R/C797S (Ba/F3 cells) (Homo sapiens, UniProt P00533, C797S/L858R); experiment: Inhibitor activity on EGFR-dependent cell growth (CellTiter-Glo, 72 h), Ba/F3 EGFR L858R/C797S; settings: read-out: BaF3 L858R/C797S IC50
T4 construct: expressed in transfected cells; host or cells: Ba/F3 (murine pro-B cells), retroviral transduction, puromycin selection, IL3-independent pool
Method in brief: as §2

[6] = molecular target: T1, EGFR exon 20 NPG Ins D770_N771 (Ba/F3 cells); experiment: Inhibitor activity on EGFR-dependent cell growth (CellTiter-Glo, 72 h), Ba/F3 EGFR exon 20 NPG Ins; settings: read-out: BaF3 NPG IC50
Method in brief: (§3)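 IC50s derive from a sigmoidal dose–response fit of CellTiter-Glo signal. The signal was normalised between […]-treated cells and cell-free medium. Ba/F3 mutant-EGFR cells, seeded at 400–800/well depending on the line, had 72 h of exposure to a 10-point, 3-fold compound series.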

[7] = molecular target: T3, EGFR L858R (Ba/F3 cells); experiment: Inhibitor activity on EGFR phosphorylation (pEGFR AlphaLISA, 2 h), Ba/F3 EGFR L858R
Method in brief: as §1

[8] = molecular target: T5, EGFR exon 19del (Ba/F3 cells) (Homo sapiens, UniProt P00533); experiment: Inhibitor activity on EGFR-dependent cell growth (CellTiter-Glo, 72 h), Ba/F3 EGFR exon 19del; settings: Ba/F3 EGFR exon 19del cell growth, read-out: BaF3 Del19 IC50
Method in brief: as §2

[9] = molecular target: T6, EGFR exon 20 SVD Ins D770_N771 (Ba/F3 cells) (Homo sapiens, UniProt P00533, INS770SVD); experiment: Inhibitor activity on EGFR phosphorylation (pEGFR AlphaLISA, 2 h), Ba/F3 EGFR exon 20 SVD Ins
T6 construct: expressed in transfected cells; host or cells: Ba/F3 (murine pro-B cells), retroviral transduction, puromycin selection, IL3-independent pool
Excerpt: Example B. Inhibitor Activity on EGFR phosphorylation (pEGFR)
EGFR mutant Ba/F3 cells were generated by transduction with retrovirus containing vectors expressing EGFR L858R, EGFR exon 19del, EGFR L858R/C797S, EGFR exon 20 NPG Ins D770_N771, EGFR exon 20 ASV Ins V769_D770, or EGFR exon 20 SVD Ins D770_N771 genes along with a puromycin selection marker. Transduced cells are selected with puromycin for 7 days and are then be transferred into culture media without Interleukin 3 (IL3). Surviving cells are confirmed to express EGFR by Western blot and maintained as a pool. CUTO14 cells were obtained from Dr. Robert C. Doebele at the University of Colorado. The IC50 date are included in Table 6 and Table 7.
1.1 Cells are harvested from flask into cell culture medium and the cell number counted.
1.2 Cells are diluted with culture medium to the desired density and 40 μL of cell suspension is added into each well of 384-well cell culture plate and the seeding density is 50K cells/well (Ba/F3) or 12.5K cells/well (CUTO14).
2 Compound Preparation and Treatment
2.1 Test compounds are dissolved to 10 mM in a DMSO stock solution. 45 μL of stock solution is transferred to a 384 polypropylene plate (pp-plate). Perform 3-fold, 10-point dilution via transferring 15 μL compound into 30 μL DMSO using a TECAN (EVO200) liquid handler.
2.2 Spin plates at room temperature at 1,000 RPM for 1 minute.
2.3 Transfer 5 nL of diluted compound from compound source plate into the cell plate.
2.4 After compound treatment for 2 hours, perform pEGFR detection by AlphaLISA for compound treatment plates as described in “Detection” section.
3 Detection by pEGFR AlphaLISA (Perkin-Elmer)
3.1 Plates are removed from incubators and equilibrated at room temperature for 10 minutes, and media was removed
3.2 10 μL of lysis buffer is added and plates shaken at 600 rpm for 1 hr.
3.3 Prepare acceptor mix just before use and dispense 5 μL of acceptor mix to all the wells. Shake 350 rpm for Ihr in the dark
3.4 Prepare donor mix under low light conditions prior to use. Dispense 5 μL of donor mix to all the wells. Mix well on the shaker, seal and wrap in aluminum foil and incubate 1.5 hrs at room temperature in the dark
3.5 Transfer 18.5 μL mixture to OptiPlate 384, and read using an Envision. The IC50 date were included in Table 6 and Table 7.

[10] = molecular target: T7, EGFR exon 20 FQEA Ins A763_V764 (Ba/F3 cells) (Homo sapiens, UniProt P00533, INS763FQEA); experiment: Inhibitor activity on EGFR-dependent cell growth (CellTiter-Glo, 72 h), Ba/F3 EGFR exon 20 FQEA Ins; settings: read-out: BaF3 FQEA IC50
T7 construct: expressed in transfected cells; host or cells: Ba/F3 (murine pro-B cells), retroviral transduction, puromycin selection, IL3-independent pool
Method in brief: as §2

[11] = molecular target: T8, EGFR exon 20 ASV Ins V769_D770 (Ba/F3 cells) (Homo sapiens, UniProt P00533, INS769ASV); experiment: Inhibitor activity on EGFR phosphorylation (pEGFR AlphaLISA, 2 h), Ba/F3 EGFR exon 20 ASV Ins; settings: EGFR phosphorylation, AlphaLISA, 2 hours; read-out: ASV IC50 (pEGFR)
T8 construct: expressed in transfected cells; host or cells: Ba/F3 (murine pro-B cells), retroviral transduction, puromycin selection, IL3-independent pool
Method in brief: as §1

[12] = molecular target: T4, EGFR L858R/C797S (Ba/F3 cells); experiment: Inhibitor activity on EGFR phosphorylation (pEGFR AlphaLISA, 2 h), Ba/F3 EGFR L858R/C797S
Method in brief: as §1

[13] = molecular target: T5, EGFR exon 19del (Ba/F3 cells); experiment: Inhibitor activity on EGFR phosphorylation (pEGFR AlphaLISA, 2 h), Ba/F3 EGFR exon 19del; settings: read-out: Del19 IC50 (pEGFR)
Method in brief: as §1

[14] = molecular target: T6, EGFR exon 20 SVD Ins D770_N771 (Ba/F3 cells); experiment: Inhibitor activity on EGFR-dependent cell growth (CellTiter-Glo, 72 h), Ba/F3 EGFR exon 20 SVD Ins; settings: read-out: BaF3 SVD IC50
Method in brief: as §3

[15] = molecular target: T8, EGFR exon 20 ASV Ins V769_D770 (Ba/F3 cells); experiment: Inhibitor activity on EGFR-dependent cell growth (CellTiter-Glo, 72 h), Ba/F3 EGFR exon 20 ASV Ins; settings: read-out: BaF3 ASV IC50
Method in brief: as §3

T8 sequence (P00533 with tags, fused parts or gaps INS769ASV): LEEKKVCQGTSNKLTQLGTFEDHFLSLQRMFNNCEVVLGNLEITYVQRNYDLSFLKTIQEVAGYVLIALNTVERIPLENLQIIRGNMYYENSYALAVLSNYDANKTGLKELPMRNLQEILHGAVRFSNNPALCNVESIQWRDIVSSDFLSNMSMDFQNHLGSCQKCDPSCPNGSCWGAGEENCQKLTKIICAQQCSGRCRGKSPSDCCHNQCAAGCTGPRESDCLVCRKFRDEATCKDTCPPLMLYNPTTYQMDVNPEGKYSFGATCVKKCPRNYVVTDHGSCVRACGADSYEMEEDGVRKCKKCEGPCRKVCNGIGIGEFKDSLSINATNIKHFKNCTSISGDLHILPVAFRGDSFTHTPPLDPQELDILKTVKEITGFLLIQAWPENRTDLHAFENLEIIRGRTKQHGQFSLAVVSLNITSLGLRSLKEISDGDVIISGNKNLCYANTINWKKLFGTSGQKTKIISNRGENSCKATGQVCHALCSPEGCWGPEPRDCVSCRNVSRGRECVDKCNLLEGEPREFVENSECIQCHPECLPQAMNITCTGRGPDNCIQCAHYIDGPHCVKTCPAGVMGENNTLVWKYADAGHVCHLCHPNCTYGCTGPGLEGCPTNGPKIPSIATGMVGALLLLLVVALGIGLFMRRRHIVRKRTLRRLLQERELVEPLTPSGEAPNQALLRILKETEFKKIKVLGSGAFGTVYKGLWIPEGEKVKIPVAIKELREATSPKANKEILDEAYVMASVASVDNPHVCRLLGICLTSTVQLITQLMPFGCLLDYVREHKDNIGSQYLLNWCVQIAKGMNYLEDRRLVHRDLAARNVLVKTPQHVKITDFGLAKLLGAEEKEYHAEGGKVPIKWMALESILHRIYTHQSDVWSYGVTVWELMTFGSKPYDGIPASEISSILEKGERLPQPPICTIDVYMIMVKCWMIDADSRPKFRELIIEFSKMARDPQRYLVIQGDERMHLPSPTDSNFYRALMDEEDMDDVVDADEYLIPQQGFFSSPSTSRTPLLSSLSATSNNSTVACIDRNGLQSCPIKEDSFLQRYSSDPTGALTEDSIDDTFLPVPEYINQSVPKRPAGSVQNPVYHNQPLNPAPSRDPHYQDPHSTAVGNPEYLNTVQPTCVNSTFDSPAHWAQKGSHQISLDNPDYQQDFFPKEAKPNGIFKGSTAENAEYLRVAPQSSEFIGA
T3 sequence (P00533 25-1210 L858R): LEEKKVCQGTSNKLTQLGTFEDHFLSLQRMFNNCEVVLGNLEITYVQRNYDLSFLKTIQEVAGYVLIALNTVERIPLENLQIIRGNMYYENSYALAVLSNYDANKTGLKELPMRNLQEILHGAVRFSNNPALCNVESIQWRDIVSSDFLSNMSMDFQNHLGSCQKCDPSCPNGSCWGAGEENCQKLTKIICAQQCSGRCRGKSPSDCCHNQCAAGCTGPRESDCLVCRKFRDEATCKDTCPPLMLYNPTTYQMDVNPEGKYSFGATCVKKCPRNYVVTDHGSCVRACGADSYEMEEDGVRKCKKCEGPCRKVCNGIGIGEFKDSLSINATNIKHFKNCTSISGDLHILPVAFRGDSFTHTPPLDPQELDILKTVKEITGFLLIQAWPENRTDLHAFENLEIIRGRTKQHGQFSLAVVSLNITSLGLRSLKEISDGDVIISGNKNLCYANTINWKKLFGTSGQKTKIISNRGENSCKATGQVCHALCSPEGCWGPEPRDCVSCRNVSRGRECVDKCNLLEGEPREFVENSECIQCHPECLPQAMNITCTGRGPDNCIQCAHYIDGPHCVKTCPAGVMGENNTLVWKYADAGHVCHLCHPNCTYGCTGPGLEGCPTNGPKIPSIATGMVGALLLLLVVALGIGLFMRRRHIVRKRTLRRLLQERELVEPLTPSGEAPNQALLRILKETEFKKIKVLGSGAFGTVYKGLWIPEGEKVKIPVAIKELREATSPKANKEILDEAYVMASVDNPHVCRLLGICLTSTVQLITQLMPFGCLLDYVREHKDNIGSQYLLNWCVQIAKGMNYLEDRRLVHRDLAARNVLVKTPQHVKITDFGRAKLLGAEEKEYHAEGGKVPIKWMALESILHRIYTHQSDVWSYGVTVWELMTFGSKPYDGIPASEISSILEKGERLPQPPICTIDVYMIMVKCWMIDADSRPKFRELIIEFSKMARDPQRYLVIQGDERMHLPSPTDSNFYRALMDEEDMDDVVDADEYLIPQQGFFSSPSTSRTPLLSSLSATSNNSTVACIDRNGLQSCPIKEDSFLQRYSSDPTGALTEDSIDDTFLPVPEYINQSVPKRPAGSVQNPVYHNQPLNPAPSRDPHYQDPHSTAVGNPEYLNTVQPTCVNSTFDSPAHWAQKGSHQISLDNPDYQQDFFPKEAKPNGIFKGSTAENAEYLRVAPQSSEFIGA
T4 sequence (P00533 25-1210 C797S/L858R): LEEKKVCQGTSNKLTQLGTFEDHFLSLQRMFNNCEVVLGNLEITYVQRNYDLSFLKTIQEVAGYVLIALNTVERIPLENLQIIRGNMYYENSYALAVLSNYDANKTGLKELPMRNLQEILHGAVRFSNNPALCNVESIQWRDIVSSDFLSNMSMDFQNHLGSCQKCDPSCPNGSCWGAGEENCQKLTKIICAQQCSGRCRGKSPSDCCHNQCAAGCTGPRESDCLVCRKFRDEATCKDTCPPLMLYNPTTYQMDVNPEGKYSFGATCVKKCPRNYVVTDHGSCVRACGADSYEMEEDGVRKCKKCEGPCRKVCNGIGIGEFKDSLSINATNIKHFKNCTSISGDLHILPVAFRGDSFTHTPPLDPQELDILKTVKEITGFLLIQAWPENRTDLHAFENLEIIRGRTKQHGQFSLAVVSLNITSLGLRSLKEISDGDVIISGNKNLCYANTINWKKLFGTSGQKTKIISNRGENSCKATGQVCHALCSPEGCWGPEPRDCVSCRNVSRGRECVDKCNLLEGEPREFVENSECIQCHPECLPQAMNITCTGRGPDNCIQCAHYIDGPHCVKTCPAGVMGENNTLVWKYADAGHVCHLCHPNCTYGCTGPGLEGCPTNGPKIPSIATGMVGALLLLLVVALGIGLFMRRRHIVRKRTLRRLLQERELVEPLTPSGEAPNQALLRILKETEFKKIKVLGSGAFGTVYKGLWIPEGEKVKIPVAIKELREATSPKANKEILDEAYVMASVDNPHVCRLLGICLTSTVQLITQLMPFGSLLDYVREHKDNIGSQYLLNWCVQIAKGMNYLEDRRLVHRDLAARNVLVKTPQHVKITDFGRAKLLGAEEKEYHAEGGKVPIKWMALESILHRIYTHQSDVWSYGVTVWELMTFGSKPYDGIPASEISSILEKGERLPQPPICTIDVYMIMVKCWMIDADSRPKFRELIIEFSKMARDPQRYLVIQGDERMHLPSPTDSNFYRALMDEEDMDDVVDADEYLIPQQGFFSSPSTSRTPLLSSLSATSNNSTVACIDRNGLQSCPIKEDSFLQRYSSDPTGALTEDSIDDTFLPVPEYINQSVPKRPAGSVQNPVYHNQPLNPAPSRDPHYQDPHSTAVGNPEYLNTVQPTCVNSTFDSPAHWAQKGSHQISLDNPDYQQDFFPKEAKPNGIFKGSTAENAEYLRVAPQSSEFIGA
T1 sequence (P00533 with tags, fused parts or gaps INS770NPG): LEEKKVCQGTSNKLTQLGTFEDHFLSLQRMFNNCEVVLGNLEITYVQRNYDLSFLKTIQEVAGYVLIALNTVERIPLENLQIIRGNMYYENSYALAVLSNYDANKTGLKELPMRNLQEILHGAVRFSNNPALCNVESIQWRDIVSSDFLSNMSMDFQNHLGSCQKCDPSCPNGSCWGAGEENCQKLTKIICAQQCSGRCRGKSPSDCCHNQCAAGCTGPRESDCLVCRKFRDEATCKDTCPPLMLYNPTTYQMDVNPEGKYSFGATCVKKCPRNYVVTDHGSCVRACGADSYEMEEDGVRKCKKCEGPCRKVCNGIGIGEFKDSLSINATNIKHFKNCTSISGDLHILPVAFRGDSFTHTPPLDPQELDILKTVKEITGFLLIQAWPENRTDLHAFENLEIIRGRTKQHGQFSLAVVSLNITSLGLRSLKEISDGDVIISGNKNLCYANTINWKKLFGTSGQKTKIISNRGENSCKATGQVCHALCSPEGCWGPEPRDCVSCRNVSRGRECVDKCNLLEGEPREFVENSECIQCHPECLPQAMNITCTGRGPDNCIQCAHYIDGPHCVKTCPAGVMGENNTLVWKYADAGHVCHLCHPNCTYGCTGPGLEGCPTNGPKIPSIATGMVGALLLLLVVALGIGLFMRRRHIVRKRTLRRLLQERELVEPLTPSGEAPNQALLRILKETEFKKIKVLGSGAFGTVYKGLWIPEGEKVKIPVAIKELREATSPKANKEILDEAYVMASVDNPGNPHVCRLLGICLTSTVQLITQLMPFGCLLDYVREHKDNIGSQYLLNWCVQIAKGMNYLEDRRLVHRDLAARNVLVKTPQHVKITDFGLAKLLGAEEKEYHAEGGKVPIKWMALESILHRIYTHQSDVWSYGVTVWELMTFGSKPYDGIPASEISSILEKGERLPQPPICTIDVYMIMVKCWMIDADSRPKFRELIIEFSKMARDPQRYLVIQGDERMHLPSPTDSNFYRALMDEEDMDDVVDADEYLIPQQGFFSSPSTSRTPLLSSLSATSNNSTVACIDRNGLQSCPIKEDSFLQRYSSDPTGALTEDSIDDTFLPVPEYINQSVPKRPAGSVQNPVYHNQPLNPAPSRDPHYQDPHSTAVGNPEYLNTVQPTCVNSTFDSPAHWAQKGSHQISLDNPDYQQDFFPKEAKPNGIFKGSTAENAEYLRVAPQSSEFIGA

Row | Compound | pIC50 [1] | pIC50 [2] | pIC50 [3] | pIC50 [4] | pIC50 [5] | pIC50 [6] | pIC50 [7] | pIC50 [8] | pIC50 [9] | pIC50 [10] | pIC50 [11] | pIC50 [12] | pIC50 [13] | pIC50 [14] | pIC50 [15]
1 | COc1c(Cl)cccc1Nc1c(-c2ccnc(C)n2)[nH]c2c1C(=O)NC[C@H]2C[C@@H]1COCCO1 (single isomer, unassigned) [Compound 570] | > 7.00 | > 7.00 | 6.00 to 7.00 | > 7.00 | > 7.00 | > 7.00 | > 7.00 | > 7.00 | > 7.00 | > 7.00 | > 7.00 | > 7.00 | > 7.00 | – | –
2 | COc1c(Cl)cccc1Nc1c(-c2ccnc(C)n2)[nH]c2c1C(=O)NC[C@@H]2CC1COCCO1 (stereo in doubt) [Compound 551, (7S)-3-[(3-chloro-2-methoxyphenyl)amino]-7-[(2R)-1,4-dioxan-2-ylmethyl]-2-(2-methylpyrimidin-4-yl)-1H,5H,6H,7H-pyrrolo[3,2-c]pyridin-4-one] | > 7.00 | > 7.00 | 6.00 to 7.00 | > 7.00 | > 7.00 | > 7.00 | > 7.00 | > 7.00 | > 7.00 | 6.00 to 7.00 | > 7.00 | > 7.00 | > 7.00 | – | –
3 | COc1c(Cl)cccc1Nc1c(-c2ccncc2F)[nH]c2c1C(=O)NC[C@@H]2C[C@H]1COCCO1 [Compound 481, (7S)-3-[(3-chloro-2-methoxyphenyl)amino]-7-[(2S)-1,4-dioxan-2-ylmethyl]-2-(3-fluoropyridin-4-yl)-1H,5H,6H,7H-pyrrolo[3,2-c]pyridin-4-one] | > 7.00 | > 7.00 | 6.00 to 7.00 | > 7.00 | > 7.00 | > 7.00 | > 7.00 | > 7.00 | > 7.00 | > 7.00 | > 7.00 | > 7.00 | > 7.00 | – | –
4 | COc1c(Cl)cccc1Nc1c(-c2ccnc(N)n2)[nH]c2c1C(=O)NC[C@H]2C[C@@H]1COCCO1 [Compound 567, (7R)-2-(2-aminopyrimidin-4-yl)-3-[(3-chloro-2-methoxyphenyl)amino]-7-[(2R)-1,4-dioxan-2-ylmethyl]-1H,5H,6H,7H-pyrrolo[3,2-c]pyridin-4-one] | > 7.00 | > 7.00 | 6.00 to 7.00 | > 7.00 | – | > 7.00 | – | > 7.00 | > 7.00 | > 7.00 | > 7.00 | – | – | > 7.00 | > 7.00
5 | COCC[C@@H]1CNC(=O)c2c1[nH]c(-c1ccnc(N)n1)c2Nc1cccc(Cl)c1OC [Compound 726, (7R)-2-(2-aminopyrimidin-4-yl)-3-[(3-chloro-2-methoxyphenyl)amino]-7-(2-methoxyethyl)-1H,5H,6H,7H-pyrrolo[3,2-c]pyridin-4 one] | > 7.00 | > 7.00 | > 7.00 | – | – | > 7.00 | – | – | > 7.00 | > 7.00 | > 7.00 | – | – | > 7.00 | > 7.00
6 | COc1ncc2nccc(-c3[nH]c4c(c3Nc3cccc(Cl)c3OC)C(=O)NCC4)c2n1 [compound 408] | > 7.00 | > 7.00 | > 7.00 | – | – | > 7.00 | – | – | > 7.00 | > 7.00 | > 7.00 | – | – | > 7.00 | > 7.00
7 | COc1c(Cl)cccc1Nc1c(-c2ccnc(Nc3cnnn3C)n2)[nH]c2c1C(=O)NCC2 [compound 512, 3-[(3-chloro-2-methoxyphenyl)amino]-2-{2-[(3-methyl-1,2,3-triazol-4-yl)amino]pyrimidin-4-yl}-1H,5H,6H,7H-pyrrolo[3,2-c]pyridin-4-one] | > 7.00 | > 7.00 | 6.00 to 7.00 | – | – | > 7.00 | – | – | > 7.00 | > 7.00 | > 7.00 | – | – | > 7.00 | > 7.00
8 | COc1c(Cl)cccc1Nc1c(-c2ccnc(Nc3cnn(CC(F)F)c3)n2)[nH]c2c1C(=O)NCC2 [compound 514, 3-[(3-chloro-2-methoxyphenyl)amino]-2-(2-{[1-(2,2-difluoroethyl)pyrazol-4-yl]amino}pyrimidin-4-yl)-1H,5H,6H,7H-pyrrolo[3,2-c]pyridin-4-one] | > 7.00 | 6.00 to 7.00 | > 7.00 | – | – | 6.00 to 7.00 | – | – | > 7.00 | > 7.00 | > 7.00 | – | – | > 7.00 | > 7.00
9 | COc1c(Cl)cccc1Nc1c(-c2ccnc(Nc3ccn(CC(F)F)n3)n2)[nH]c2c1C(=O)NCC2 [compound 515, 3-[(3-chloro-2-methoxyphenyl)amino]-2-(2-{[1-(2,2-difluoroethyl)pyrazol-3-yl]amino}pyrimidin-4-yl)-1H,5H,6H,7H-pyrrolo[3,2-c]pyridin-4-one] | > 7.00 | > 7.00 | > 7.00 | > 7.00 | – | > 7.00 | – | > 7.00 | > 7.00 | > 7.00 | > 7.00 | – | – | > 7.00 | > 7.00
